Data on two molecules can be found in US20240000977A1, “METHODS AND KITS FOR DIAGNOSING AND TREATING CANCERS” (Baruch S. Blumberg Institute, priority 2020, published 2024).

Assay [1] relates to DACH1^+/+ 3T3 cells. Put plainly: BrdU / propidium iodide flow cytometry of S-phase cells after WEE1 inhibition. Format: cell-based. The note with it: Wt (DACH1^+/+) 3T3 cells, Adavosertib 10 μM, 24 h, 20 μM BrdU pulse 30 min; mean of 4 experiments. As to the method: (§1) DACH1 deficiency was determined to promote accumulation of non-proliferative S-phase cells by WEE1 kinase inhibitors. DACH1^+/+ and DACH1^−/− 3T3 cells were treated for 24 h with Adavosertib at 10 μM, a small molecule inhibitor of the tyrosine kinase WEE1, or with DMSO, as the control (see FIGS. 18A and 18B). Prior to harvest, the 3T3 cells were pulsed with 20 μM BrdU for 30 min at a temperature of 37° C. to enable detection of cells with active DNA replication. After harvesting the 3T3 cells, the 3T3 cells were stained with propidium iodide (DNA content) and an anti-BrdU antibody (Abcam). […] Representative FACS plots are shown (see FIGS. 19A-19E). […] Data is shown as mean±SEM for 4 separate experiments.
In general terms: In flow cytometry, cells or beads pass a laser one at a time.

The subject of assay [2] is DACH1^−/− 3T3 cells. Described as above. Format: cell-based. The note with it: 24 h. Here is the method:
as §1

Assay [3] relates to H3K36me3-deficient tumor xenografts. Conditions: cited from earlier work.
Assay [4] has as its system SETD2−/− cells. Conditions: cited from earlier work.
For assay [5], the system named is L1210 leukemia. The note with it: murine L1210 leukemia, single agent; cited from earlier work.

`C=CCn1c(=O)c2cnc(Nc3ccc(N4CCN(C)CC4)cc3)nc2n1-c1cccc(C(C)(C)O)n1` [Adavosertib]: the “non-proliferating S-phase population” value is 13.8% in assay [1] and 38.3% in assay [2] (Adavosertib 10 μM, 20 μM BrdU pulse 30 min, mean of 4 experiments). Also, the “BrdU incorporation upon inhibition of WEE1 kinase” value in assay [2] (10 μM) is reported as “failed to incorporate the BrdU”. Besides, the “effect on tumor xenografts” value in assay [3] is reported as “regresses”. The sensitivity of cells entry in assay [4] is “hypersensitive”.
With “IL-12: IL-12 proteins, cytokine used in chemo-immunotherapy”, the “antileukemic effects, agent given alone” value in assay [5] is “moderate antileukemic effects”.
